Data taken from ChEMBL document CHEMBL1128913, “Synthesis and in vitro cytotoxicity of cryptophycins and related analogs” (Bioorg Med Chem Lett, 1996).
In brackets after ≈: the same amount, converted by molar mass.

Columns and labels:
Assay type in all cases: functional, cell-based
B16-F10 = test: Cytotoxic activity against B16F10 mouse melanoma cells
DA-3 cell line = test: Cytotoxic activity against DA-3 mouse mammary adenocarcinoma cells
HT-29 = test: Cytotoxic activity against HT-29 human colon adenocarcinoma cells
KB [1] = test: Cytotoxic activity against KBV vinblastine resistant KB cells; conditions: Homo sapiens
KB [2] = test: Cytotoxic activity against Human nasopharyngeal KB cell line
KB [3] = test: Cytotoxic activity against KB human nasopharyngeal carcinoma cells

SMILES: COc1ccc(C[C@H]2NC(=O)/C=C/C[C@@H]([C@H](C)[C@H]3O[C@@H]3c3ccccc3)OC(=O)[C@H](CC(C)C)OC(=O)[C@H](C)CNC2=O)cc1Cl [CRYPTOPHYCIN A]
- IC50 (B16-F10): 0.03 nM
- IC50 (DA-3 cell line): 0.002 nM
- IC50 (HT-29): 0.002 nM
- IC50 (KB [1]): 0.035 nM
- IC50 (KB [2]): 0.005 ng/mL (≈ 0.00763 nM)
- IC50 (KB [3]): 0.004 nM

SMILES: COc1ccc(C[C@H]2NC(=O)/C=C/C[C@@H](CCCc3ccccc3)OC(=O)[C@H](CC(C)C)OC(=O)CCNC2=O)cc1
- IC50 (B16-F10): > 10 nM
- IC50 (DA-3 cell line): > 10 nM
- IC50 (HT-29): > 10 nM
- IC50 (KB [1]): > 10 nM
- IC50 (KB [3]): > 10 nM

SMILES: COc1ccc(C[C@H]2NC(=O)/C=C/C[C@@H]([C@H](C)/C=C/c3ccccc3)OC(=O)[C@H](CC(C)C)OC(=O)[C@H](C)CNC2=O)cc1Cl [CRYPTOPHYCIN 3]
- IC50 (B16-F10): 2 nM
- IC50 (DA-3 cell line): 1 nM
- IC50 (HT-29): 1 nM
- IC50 (KB [1]): 5 nM
- IC50 (KB [2]): 3 ng/mL (≈ 4.69 nM)
- IC50 (KB [3]): 2 nM

SMILES: COc1ccc(C[C@H]2NC(=O)/C=C/C[C@@H](C(O)CCc3ccccc3)OC(=O)[C@H](CC(C)C)OC(=O)[C@H](C)CNC2=O)cc1 (some centres not stated)
- IC50 (B16-F10): > 10 nM
- IC50 (DA-3 cell line): > 10 nM
- IC50 (HT-29): > 10 nM
- IC50 (KB [1]): > 10 nM
- IC50 (KB [3]): > 10 nM

SMILES: COc1ccc(C[C@H]2NC(=O)/C=C/C[C@@H](C(/C=C/c3ccccc3)OC(C)=O)OC(=O)[C@H](CC(C)C)OC(=O)[C@H](C)CNC2=O)cc1 (some centres not stated)
- IC50 (B16-F10): > 10 nM
- IC50 (DA-3 cell line): > 10 nM
- IC50 (HT-29): > 10 nM
- IC50 (KB [1]): > 10 nM
- IC50 (KB [3]): > 10 nM

SMILES: COc1ccc(C[C@H]2NC(=O)/C=C/C[C@@H](C(=O)C#Cc3ccccc3)OC(=O)[C@H](CC(C)C)OC(=O)[C@H](C)CNC2=O)cc1
- IC50 (B16-F10): > 10 nM
- IC50 (DA-3 cell line): > 10 nM
- IC50 (HT-29): > 10 nM
- IC50 (KB [1]): > 10 nM
- IC50 (KB [3]): > 10 nM

SMILES: COc1ccc(C[C@H]2NC(=O)/C=C/C[C@@H](C(=O)/C=C\c3ccccc3)OC(=O)[C@H](CC(C)C)OC(=O)CCNC2=O)cc1
- IC50 (B16-F10): > 10 nM
- IC50 (DA-3 cell line): > 10 nM
- IC50 (HT-29): > 10 nM
- IC50 (KB [1]): > 10 nM
- IC50 (KB [3]): > 10 nM

SMILES: COc1ccc(C[C@H]2NC(=O)/C=C/C[C@@H]([C@H](C)[C@H]3O[C@@H]3c3ccccc3)OC(=O)[C@H](CC(C)C)OC(=O)[C@H](C)CNC2=O)cc1
- IC50 (B16-F10): 0.3 nM
- IC50 (DA-3 cell line): 0.2 nM
- IC50 (HT-29): 0.3 nM
- IC50 (KB [1]): 0.8 nM
- IC50 (KB [3]): 0.3 nM

SMILES: COc1ccc(C[C@H]2NC(=O)/C=C/C[C@@H](C(=O)[C@H]3O[C@@H]3c3ccccc3)OC(=O)[C@H](CC(C)C)OC(=O)[C@H](C)CNC2=O)cc1
- IC50 (B16-F10): > 10 nM
- IC50 (DA-3 cell line): > 10 nM
- IC50 (HT-29): > 10 nM
- IC50 (KB [1]): > 10 nM
- IC50 (KB [3]): > 10 nM

SMILES: COc1ccc(C[C@H]2NC(=O)/C=C/C[C@@H]([C@@H](C)/C=C/c3ccccc3)OC(=O)[C@H](CC(C)C)OC(=O)[C@H](C)CNC2=O)cc1
- IC50 (B16-F10): > 10 nM
- IC50 (DA-3 cell line): > 10 nM
- IC50 (HT-29): > 10 nM
- IC50 (KB [1]): > 10 nM
- IC50 (KB [3]): > 10 nM

SMILES: COc1ccc(C[C@H]2NC(=O)/C=C/C[C@@H]([C@](C)(O)/C=C\c3ccccc3)OC(=O)[C@H](CC(C)C)OC(=O)CCNC2=O)cc1
- IC50 (B16-F10): > 10 nM
- IC50 (DA-3 cell line): > 10 nM
- IC50 (HT-29): > 10 nM
- IC50 (KB [1]): > 10 nM
- IC50 (KB [3]): > 10 nM
